# According to PMC8318231, “Rate-of-Kill (RoK) assays to triage large compound sets for Chagas disease drug discovery: Application to GSK Chagas Box” (PLoS Neglected Tropical Diseases, 2021):
# Where two headings read alike, the source gives them in different places.
# Assays:
# [1] = tested on: T. cruzi Tulahuen trypomastigotes; experiment: T. cruzi trypomastigote assay (Cell Titer-Glo viability, ATP luminescence); assay type: cell-based, Trypanosoma cruzi; settings: for IC50: Trypanosoma cruzi, TULAHUEN
# Outline: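 Compounds were tested in dose response or once at a final 5 μM against 5 × 10^4 trypomastigotes per well (DMEM, 2% FBS), collected on days 5–8 from LLC-MK2 infected cultures. ATP luminescence via CellTiter-Glo reports live parasites; DMSO defines 0% and cell-free wells 100% effect.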
# [2] = tested on: T. cruzi intracellular amastigotes in H9c2 cells; experiment: Rate-of-Kill (RoK) high-content imaging assay, amastigotes per cell (AM/CELL) and curve descriptors; assay type: cell-based, Trypanosoma cruzi; design: key to ME_24h / ME_48h / ME_72h: % reduction in parasite burden (cidal response); t50pct_MCC50 / t50pct_Cmax: unit not given here; settings: for AM/CELL NORM: figure 4 A
# Outline: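 Readouts at each time point are amastigotes per cell and host nuclei count (cytotoxicity), from DRAQ5 high-content imaging. Infection: trypomastigotes on H9c2 at MOI 8 for 18 h. Dosing was 5 μM single point or 11 points, 1/3 steps from 50 μM. Effect scaled between 4 h infected and uninfected controls.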
# TcCYP51 = settings: formerly reported; cited from earlier work
# Trypanosoma cruzi = settings: cited from earlier work
structure (smiles),measurement,setting,value
"CC[C@@H]([C@H](C)O)n1ncn(-c2ccc(N3CCN(c4ccc(OC[C@@H]5CO[C@@](Cn6cncn6)(c6ccc(F)cc6F)C5)cc4)CC3)cc2)c1=O [Posaconazole, reference compound]",activity in trypomastigotes assay (in words),[1]; 48 and 72 hours,inactive
same,IC50,"[1]; 48 h, read-out: Trypomastigotes pIC50 48 hours (converted)",> 50.1 µM
same,IC50,"[1]; 72 h, read-out: Trypomastigotes pIC50 72 hours (converted)",> 50.1 µM
same,IC50,"[1]; 72 hours, plotted values, censored values given without sign, read-out: 72 pIC50 (trypomastigotes, raw data of Fig 1D) (converted)",> 50.1 µM
same,IC50,"[1]; trypomastigote assay, 48 h, figure 1A, read-out: 48 pIC50 (converted)",> 50.1 µM
same,IC50,"[1]; trypomastigote assay, 72 h, figure 1A, read-out: 72 pIC50 (converted)",> 50.1 µM
same,72 pIC50,"[1]; trypomastigote assay, 72 h, figure 1B",< 4.3
same,ME (maximum effect) in RoK assay (in words),[2],lower ME
same,tlag (in words),[2],longer tlag_MCC50 and tlag_Cmax values
same,ME_24h,"[2]; 24h, figure 5",-76.4226
same,ME_48h,"[2]; 48h, figure 5",-0.321
same,ME_72h,"[2]; 72h, figure 5",50.6685
same,MCCE (Minimal Compound Concentration with Effect),"[2]; Fig 2C, average, lowest concentration that decreases AUC of AM/CELL versus time by at least 50% vs infected control",0.003 µM
same,MCC50 (Minimal Cidal Concentration 50%),"[2]; Fig 2C, average, lowest concentration that reduces 50% of the parasite load measured at zero time, listed as POS",6.2 µM
same,t50pct_Cmax (t50%_Cmax),"[2]; Fig 2C, average, time to reduce 50% of initial parasite load at maximum concentration",65.9 h
same,MCC50,[2]; RoK curve descriptor,6.2 µM
same,MCCE,[2]; RoK curve descriptor,0.003 µM
same,AM/CELL NORM,[2]; Time 4,5.09
same,AM/CELL NORM,[2]; Time 24,-32.2625
same,AM/CELL NORM,[2]; Time 48,-0.614
same,AM/CELL NORM,[2]; Time 72,48.3608
same,Emax,"[2]; Trypanosoma cruzi, H9c2, maximum percentage of parasite burden reduction reached by any concentration, 24 hours, read-out: ME 24h (maximum effect at 24 hours, intracellular amastigotes)",-63%
same,t50%_Cmax,[2]; at Cmax,65.9 h
same,tlag_Cmax,[2]; at Cmax,24.0 h
same,t50pct_Cmax,"[2]; at Cmax, figure 5",65.8667
same,tlag_Cmax,"[2]; at Cmax, figure 5",24
same,t50%_MCC50,[2]; at MCC50,54.2 h
same,tlag_MCC50,[2]; at MCC50,29.3 h
same,t50pct_MCC50,"[2]; at MCC50, figure 5",61.3333
same,tlag_MCC50,"[2]; at MCC50, figure 5",46.4
same,MCCE,[2]; figure 5,0.002879
same,MCC50,"[2]; figure 5, in µM",23.7078
same,ME_24h (%),"[2]; maximum effect at 24 h, RoK assay",-76.4%
same,ME_48h (%),"[2]; maximum effect at 48 h, RoK assay",-0.32%
same,ME_72h (%),"[2]; maximum effect at 72 h, RoK assay",50.7%
same,CYP51 pIC50,TcCYP51,7.3
same,curative dose in mice,Trypanosoma cruzi,20 mg/kg/day
